In PubChem BioAssay AID1745844 (Carcinogenic Potency Database (CPDB), 2022):
Active and inactive are the calls of the source. The rule behind the calls is not given here.

Test system: rodent lifetime carcinogenesis bioassay, tumor incidence TD50
Assay: chronic cancer bioassays in animals – CPDB, compiled studies (AID 1745844)

In the case of COc1ccccc1[N+](=O)[O-], the TD50 (mouse, strain B6C3F1, females, in feed, site: all sites, lesion: malignant lymphoma, histiocytic type + malignant lymphoma, mixed type + malignant lymphoma, lymphocytic type + malignant lymph, dosed 103 weeks, study length 104 weeks) is reported as 153 mg/kg/day, the TD50 (mouse, strain B6C3F1, females, in feed, site: any site (literature study), lesion: several types, types named in the paper, dosed 103 weeks, study length 104 weeks) is reported as 350 mg/kg/day and the TD50 (mouse, strain B6C3F1, females, in feed, site: liver, lesion: hepatocellular adenoma + hepatoblastoma + hepatocellular carcinoma, dosed 103 weeks, study length 104 weeks) is reported as 194 mg/kg/day. For the same molecule, the TD50 (mouse, strain B6C3F1, females, in feed, site: liver, lesion: hepatocellular adenoma + hepatocellular carcinoma, dosed 103 weeks, study length 104 weeks) was 194 mg/kg/day, the TD50 (mouse, strain B6C3F1, females, in feed, site: liver, lesion: hepatocellular adenoma, dosed 103 weeks, study length 104 weeks) was 179 mg/kg/day and the TD50 (mouse, strain B6C3F1, males, in feed, site: any site (literature study), lesion: several types, types named in the paper, dosed 103 weeks, study length 104 weeks) was 43500 mg/kg/day. It also gave a TD50 (mouse, strain B6C3F1, males, in feed, site: liver, lesion: hepatoblastoma + hepatocellular carcinoma, dosed 103 weeks, study length 104 weeks) of 391 mg/kg/day, a TD50 (mouse, strain B6C3F1, males, in feed, site: liver, lesion: hepatoblastoma, dosed 103 weeks, study length 104 weeks) of 428 mg/kg/day and a TD50 (mouse, strain B6C3F1, males, in feed, site: liver, lesion: hepatocellular adenoma + hepatoblastoma + hepatocellular carcinoma, dosed 103 weeks, study length 104 weeks) of 198 mg/kg/day. The TD50 (mouse, strain B6C3F1, males, in feed, site: liver, lesion: hepatocellular adenoma + hepatocellular carcinoma, dosed 103 weeks, study length 104 weeks) was 208 mg/kg/day, the TD50 (mouse, strain B6C3F1, males, in feed, site: liver, lesion: hepatocellular adenoma, dosed 103 weeks, study length 104 weeks) was 177 mg/kg/day and the TD50 (rat, strain Fischer 344, females, in feed, site: all sites, lesion: mononuclear-cell leukemia, dosed 103 weeks, study length 104 weeks) was 152 mg/kg/day. For the same molecule, the TD50 (rat, strain Fischer 344, females, in feed, site: any site (literature study), lesion: several types, types named in the paper, dosed 27 weeks, study length 104 weeks) was 10.7 mg/kg/day, the TD50 (rat, strain Fischer 344, females, in feed, site: any site (literature study), lesion: several types, types named in the paper, dosed 103 weeks, study length 104 weeks) was 336 mg/kg/day and the TD50 (rat, strain Fischer 344, females, in feed, site: colon, lesion: adenomatous polyp, dosed 27 weeks, study length 104 weeks) was 60.9 mg/kg/day. The TD50 (rat, strain Fischer 344, females, in feed, site: colon, lesion: carcinoma, dosed 27 weeks, study length 104 weeks) was 1300 mg/kg/day, the TD50 (rat, strain Fischer 344, females, in feed, site: forestomach, lesion: squamous-cell carcinoma + squamous-cell papilloma, dosed 103 weeks, study length 104 weeks) was 1270 mg/kg/day and the TD50 (rat, strain Fischer 344, females, in feed, site: forestomach, lesion: squamous-cell papilloma, dosed 103 weeks, study length 104 weeks) was 3270 mg/kg/day. The TD50 (rat, strain Fischer 344, females, in feed, site: kidney + large intestine + urinary bladder, lesion: transitional-cell carcinoma + transitional-cell papilloma + adenomatous polyp + carcinoma + sarcoma + squamous-cell carcinoma + squa, dosed 27 weeks, study length 104 weeks) was 12.9 mg/kg/day, the TD50 (rat, strain Fischer 344, females, in feed, site: kidney, lesion: transitional-cell carcinoma + transitional-cell papilloma, dosed 27 weeks, study length 104 weeks) was 1240 mg/kg/day and the TD50 (rat, strain Fischer 344, females, in feed, site: kidney, lesion: transitional-cell carcinoma, dosed 27 weeks, study length 104 weeks) was 3550 mg/kg/day. The TD50 (rat, strain Fischer 344, females, in feed, site: kidney, lesion: transitional-cell papilloma, dosed 27 weeks, study length 104 weeks) was 1890 mg/kg/day, the TD50 (rat, strain Fischer 344, females, in feed, site: large intestine, lesion: adenomatous polyp + carcinoma, dosed 27 weeks, study length 104 weeks) was 55 mg/kg/day and the TD50 (rat, strain Fischer 344, females, in feed, site: large intestine, lesion: adenomatous polyp, dosed 27 weeks, study length 104 weeks) was 55 mg/kg/day. The TD50 (rat, strain Fischer 344, females, in feed, site: large intestine, lesion: carcinoma, dosed 27 weeks, study length 104 weeks) was 1300 mg/kg/day, the TD50 (rat, strain Fischer 344, females, in feed, site: liver, lesion: hepatocellular adenoma + hepatoblastoma + hepatocellular carcinoma, dosed 103 weeks, study length 104 weeks) was 1010 mg/kg/day and the TD50 (rat, strain Fischer 344, females, in feed, site: liver, lesion: hepatocellular adenoma, dosed 103 weeks, study length 104 weeks) was 1010 mg/kg/day. It also gave a TD50 (rat, strain Fischer 344, females, in feed, site: lung, lesion: alveolar/bronchiolar adenoma, dosed 103 weeks, study length 104 weeks) of 666 mg/kg/day, a TD50 (rat, strain Fischer 344, females, in feed, site: rectum, lesion: adenomatous polyp, dosed 27 weeks, study length 104 weeks) of 560 mg/kg/day and a TD50 (rat, strain Fischer 344, females, in feed, site: urinary bladder, lesion: sarcoma, dosed 27 weeks, study length 104 weeks) of 192 mg/kg/day. For the same molecule, the TD50 (rat, strain Fischer 344, females, in feed, site: urinary bladder, lesion: squamous-cell carcinoma + squamous-cell papilloma, dosed 27 weeks, study length 104 weeks) was 588 mg/kg/day, the TD50 (rat, strain Fischer 344, females, in feed, site: urinary bladder, lesion: squamous-cell carcinoma, dosed 27 weeks, study length 104 weeks) was 2700 mg/kg/day and the TD50 (rat, strain Fischer 344, females, in feed, site: urinary bladder, lesion: squamous-cell papilloma, dosed 27 weeks, study length 104 weeks) was 751 mg/kg/day. The TD50 (rat, strain Fischer 344, females, in feed, site: urinary bladder, lesion: transitional-cell carcinoma + transitional-cell papilloma, dosed 27 weeks, study length 104 weeks) was 13 mg/kg/day, the TD50 (rat, strain Fischer 344, females, in feed, site: urinary bladder, lesion: transitional-cell carcinoma, dosed 27 weeks, study length 104 weeks) was 13.2 mg/kg/day and the TD50 (rat, strain Fischer 344, females, in feed, site: urinary bladder, lesion: transitional-cell papilloma, dosed 27 weeks, study length 104 weeks) was 543 mg/kg/day. For the same molecule, the TD50 (rat, strain Fischer 344, males, in feed, site: adrenal medulla, lesion: pheochromocytoma benign, bilateral + pheochromocytoma, benign, dosed 103 weeks, study length 104 weeks) was 89.6 mg/kg/day, the TD50 (rat, strain Fischer 344, males, in feed, site: adrenal medulla, lesion: pheochromocytoma benign, bilateral + pheochromocytoma, malignant + pheochromocytoma, benign, dosed 103 weeks, study length 104 weeks) was 109 mg/kg/day and the TD50 (rat, strain Fischer 344, males, in feed, site: all sites, lesion: mononuclear-cell leukemia, dosed 103 weeks, study length 104 weeks) was 25.9 mg/kg/day. It also gave a TD50 (rat, strain Fischer 344, males, in feed, site: any site (literature study), lesion: several types, types named in the paper, dosed 27 weeks, study length 104 weeks) of 3.97 mg/kg/day, a TD50 (rat, strain Fischer 344, males, in feed, site: any site (literature study), lesion: several types, types named in the paper, dosed 103 weeks, study length 104 weeks) of 21.4 mg/kg/day and a TD50 (rat, strain Fischer 344, males, in feed, site: cecum, lesion: adenomatous polyp, dosed 27 weeks, study length 104 weeks) of 21.3 mg/kg/day. It also gave a TD50 (rat, strain Fischer 344, males, in feed, site: colon, lesion: adenomatous polyp, dosed 27 weeks, study length 104 weeks) of 17.2 mg/kg/day, a TD50 (rat, strain Fischer 344, males, in feed, site: colon, lesion: carcinoma, dosed 27 weeks, study length 104 weeks) of 573 mg/kg/day and a TD50 (rat, strain Fischer 344, males, in feed, site: forestomach, lesion: squamous-cell carcinoma + squamous-cell papilloma, dosed 103 weeks, study length 104 weeks) of 304 mg/kg/day. The TD50 (rat, strain Fischer 344, males, in feed, site: forestomach, lesion: squamous-cell carcinoma, dosed 103 weeks, study length 104 weeks) was 715 mg/kg/day, the TD50 (rat, strain Fischer 344, males, in feed, site: forestomach, lesion: squamous-cell papilloma, dosed 103 weeks, study length 104 weeks) was 543 mg/kg/day and the TD50 (rat, strain Fischer 344, males, in feed, site: kidney + large intestine + urinary bladder, lesion: transitional-cell carcinoma + transitional-cell papilloma + adenomatous polyp + carcinoma + sarcoma + squamous-cell carcinoma + squa, dosed 27 weeks, study length 104 weeks) was 7.47 mg/kg/day. The TD50 (rat, strain Fischer 344, males, in feed, site: kidney, lesion: transitional-cell carcinoma + transitional-cell papilloma, dosed 27 weeks, study length 104 weeks) was 83.6 mg/kg/day, the TD50 (rat, strain Fischer 344, males, in feed, site: kidney, lesion: transitional-cell carcinoma, dosed 27 weeks, study length 104 weeks) was 90.9 mg/kg/day and the TD50 (rat, strain Fischer 344, males, in feed, site: kidney, lesion: transitional-cell papilloma, dosed 27 weeks, study length 104 weeks) was 1040 mg/kg/day. For the same molecule, the TD50 (rat, strain Fischer 344, males, in feed, site: kidney, lesion: tubule adenoma + tubule carcinoma, dosed 103 weeks, study length 104 weeks) was 251 mg/kg/day, the TD50 (rat, strain Fischer 344, males, in feed, site: kidney, lesion: tubule adenoma, dosed 103 weeks, study length 104 weeks) was 435 mg/kg/day and the TD50 (rat, strain Fischer 344, males, in feed, site: kidney, lesion: tubule carcinoma, dosed 103 weeks, study length 104 weeks) was 612 mg/kg/day. It also gave a TD50 (rat, strain Fischer 344, males, in feed, site: large intestine, lesion: adenomatous polyp + carcinoma, dosed 27 weeks, study length 104 weeks) of 8.54 mg/kg/day, a TD50 (rat, strain Fischer 344, males, in feed, site: large intestine, lesion: adenomatous polyp, dosed 27 weeks, study length 104 weeks) of 8.58 mg/kg/day and a TD50 (rat, strain Fischer 344, males, in feed, site: large intestine, lesion: carcinoma, dosed 27 weeks, study length 104 weeks) of 573 mg/kg/day. It also gave a TD50 (rat, strain Fischer 344, males, in feed, site: liver, lesion: hepatocellular adenoma + hepatoblastoma + hepatocellular carcinoma, dosed 103 weeks, study length 104 weeks) of 330 mg/kg/day, a TD50 (rat, strain Fischer 344, males, in feed, site: preputial gland, lesion: carcinoma + carcinoma, bilateral, dosed 103 weeks, study length 104 weeks) of 195 mg/kg/day and a TD50 (rat, strain Fischer 344, males, in feed, site: rectum, lesion: adenomatous polyp, dosed 27 weeks, study length 104 weeks) of 51.8 mg/kg/day. It also gave a TD50 (rat, strain Fischer 344, males, in feed, site: testis, lesion: interstitial-cell adenoma, bilateral + interstitial-cell adenoma, dosed 103 weeks, study length 104 weeks) of 21.3 mg/kg/day, a TD50 (rat, strain Fischer 344, males, in feed, site: urinary bladder, lesion: sarcoma, dosed 27 weeks, study length 104 weeks) of 292 mg/kg/day and a TD50 (rat, strain Fischer 344, males, in feed, site: urinary bladder, lesion: squamous-cell carcinoma + squamous-cell papilloma, dosed 27 weeks, study length 104 weeks) of 273 mg/kg/day. For the same molecule, the TD50 (rat, strain Fischer 344, males, in feed, site: urinary bladder, lesion: squamous-cell carcinoma, dosed 27 weeks, study length 104 weeks) was 422 mg/kg/day, the TD50 (rat, strain Fischer 344, males, in feed, site: urinary bladder, lesion: squamous-cell papilloma, dosed 27 weeks, study length 104 weeks) was 482 mg/kg/day and the TD50 (rat, strain Fischer 344, males, in feed, site: urinary bladder, lesion: transitional-cell carcinoma + transitional-cell papilloma, dosed 27 weeks, study length 104 weeks) was 7.48 mg/kg/day. For the same molecule, the TD50 (rat, strain Fischer 344, males, in feed, site: urinary bladder, lesion: transitional-cell carcinoma, dosed 27 weeks, study length 104 weeks) was 8.28 mg/kg/day and the TD50 (rat, strain Fischer 344, males, in feed, site: urinary bladder, lesion: transitional-cell papilloma, dosed 27 weeks, study length 104 weeks) was 75.6 mg/kg/day.

Work on CCC(C)[N+](=O)[O-] (stereo not drawn) yielded a TD50 (rat, strain Fischer 344, males, by gavage, site: liver, lesion: hepatocellular carcinoma, dosed 50 weeks, study length 83 weeks) of 2.86 mg/kg/day.

Nc1ccc(Oc2ccc(N)c(N)c2)cc1 showed a TD50 (mouse, strain ICR/Jcl, males, in feed, site: liver, lesion: hepatoma, dosed 52 weeks, study length 52 weeks) of 13.3 mg/kg/day.

For CC(=O)N(O)c1ccc(-c2ccccc2)cc1, the carcinogen call (rat, strain Not specified, females, in feed, site: liver, lesion: one or several types, types not named, dosed 43 weeks, study length 65 weeks) was “negative (inactive)”.

With CC(C)OC(=O)COc1ccc(Cl)cc1Cl the TD50 (mouse, strain B6AKF1, females, oral dosing, site: any site (literature study), lesion: several types, types named in the paper, dosed 76 weeks, study length 76 weeks) was 83.2 mg/kg/day (inactive), the TD50 (mouse, strain B6AKF1, females, oral dosing, site: liver, lesion: hepatocellular carcinoma, dosed 76 weeks, study length 76 weeks) was 94.7 mg/kg/day (inactive) and the carcinogen call (mouse, strain B6AKF1, females, oral dosing, site: lung, lesion: adenoma, dosed 76 weeks, study length 76 weeks) was “negative (inactive)”. The carcinogen call (mouse, strain B6AKF1, males, oral dosing, site: any site (literature study), lesion: several types, types named in the paper, dosed 76 weeks, study length 76 weeks) was “negative (inactive)”, the carcinogen call (mouse, strain B6AKF1, males, oral dosing, site: liver, lesion: hepatoma, dosed 76 weeks, study length 76 weeks) was “negative (inactive)” and the carcinogen call (mouse, strain B6AKF1, males, oral dosing, site: lung, lesion: adenoma, dosed 76 weeks, study length 76 weeks) was “negative (inactive)”. For the same molecule, the TD50 (mouse, strain B6C3F1, females, oral dosing, site: any site (literature study), lesion: several types, types named in the paper, dosed 76 weeks, study length 76 weeks) was 48.7 mg/kg/day (inactive), the TD50 (mouse, strain B6C3F1, females, oral dosing, site: liver, lesion: hepatoma, dosed 76 weeks, study length 76 weeks) was 100 mg/kg/day (inactive) and the TD50 (mouse, strain B6C3F1, females, oral dosing, site: lung, lesion: adenoma, dosed 76 weeks, study length 76 weeks) was 100 mg/kg/day (inactive). For the same molecule, the TD50 (mouse, strain B6C3F1, males, oral dosing, site: any site (literature study), lesion: several types, types named in the paper, dosed 76 weeks, study length 76 weeks) was 16.4 mg/kg/day (inactive), the TD50 (mouse, strain B6C3F1, males, oral dosing, site: liver, lesion: hepatoma, dosed 76 weeks, study length 76 weeks) was 93.6 mg/kg/day (inactive) and the TD50 (mouse, strain B6C3F1, males, oral dosing, site: lung, lesion: adenoma, dosed 76 weeks, study length 76 weeks) was 21.3 mg/kg/day (inactive).
